Measured values published in patent US8293726B2, “Treatment of cancer and other diseases” (Vianova Labs, Inc., priority 2005, dated 2012).
Values joined by “and” are separate entries in the source; they are usually repeats but may differ in a detail not shown here. Equal values may be shown once.

Key:
[1] = tested on: experimentally induced large B-cell lymphoma; test: Therapeutic efficacy in mice with experimentally induced large B-cell lymphoma (blood tests, LDH, body weight, autopsy); format: in vivo; settings: second treated group; M (arithmetic mean of 3 animals)
[2] = tested on: hormone resistant metastatic prostate cancer; test: Patient case: hormone resistant metastatic prostate cancer, PSA; format: in vivo, human
Excerpt: A patient presented with hormone resistant metastatic prostate cancer. They had previously been treated with three courses of chemotherapy (Navelbine+Taxotere, but their PSA was still increasing.

[3] = tested on: poorly differentiated lobular carcinoma of the right breast; test: Patient case: stage IV lobular breast carcinoma with liver, spleen and bone metastases; format: in vivo, human
Excerpt: A patient with a past medical history of anemia and mild chronic renal failure due to retroperitoneal fibrosis presented with a stage IV poorly differentiated lobular carcinoma of the right breast and liver, spleen and bone metastases. […] Three days after treatment, we observed a decrease in LDH level from 450 to 204.

[4] = tested on: pancreatic adenocarcinoma; test: Patient case: pancreatic adenocarcinoma, CA 19-9; format: in vivo, human; design: CA 19-9: unit not given beside the values
Excerpt: A diabetic and insulin dependent patient with a past history of lymphoma presented with a 3 cm tumor in the head of pancreas and a suspicion of hepatic metastasis.

human tumor cell lines = test: Human tumor cell lines in immunocompromised mice, general observations over all tumor types; format: in vivo
Experimental: Immunocompromised mice were used for this experiment. Mice were inbred in a sterile environment and fed ad libitum. Four groups of 40 mice, weighing approximately 20 g each (range: 17-25 g), were used for each tumor type. The human tumor cell lines used were the following: large B-cell lymphoma; squamous-cell carcinoma of the lung; ductal carcinoma breast; and adenocarcinoma of the lung. A suspension of tumor cells was injected in the peritoneum of immunocompromised mice. Following this, mice were examined and weighed daily. After 6-8 days, we observed the development of abdominal carcinomatosis and […]. At day 18, we observed the development of an abundant […], which increased the weight of the mice by approximately 20 g. At that time, mice were divided into four groups of 10. […] Assessment of tumor cell concentration in the […] abdominal metastases were measured on day 18 and every 2 days thereafter. In all mice, prior to treatment, we observed an increase in LDH ESR (>100) and a decrease in the hematocrit. Control (untreated) mice all died between day 21 and day 25 in all tumor types.

[5] = tested on: experimentally induced large B-cell lymphoma; test: Therapeutic efficacy in mice with experimentally induced large B-cell lymphoma (blood tests, LDH, body weight, autopsy); format: in vivo; design: Lymphocytes: unit not given here; settings: for LDH: blood plasma; for Total protein: blood serum; for Lymphocytes: blood
Experimental: Investigations were carried out on immunocompromised laboratory mice with experimentally-induced large B-cell lymphoma using hematological, immunological, biochemical, anatomical, and cytological methods. Two groups of 15 mice were employed. In the first group, 24-ethyl-cholestane-3β,5α,6α-triol was administered orally daily at a dosage of 5 mg/kg. The second group served as the control. The following parameters of therapeutic efficacy were compared: dynamics of LDH activity in the blood plasma, content of total protein, and general clinical blood test results.
As is seen from Table 2, statistically important differences (P<0.05) between animals with lymphoma and healthy animals were marked by the amount of leukocytes, hemoglobin, by color indication, the absolute number of lymphocytes in blood, as well as the content of total protein in the blood serum and the LDH activity in blood plasma. These changes characterize the presence of disorders in the lymphoid component of blood formation, indicate the presence of intensive cytolysis in the process of carcinogenesis (due to increased LDH), and show the presence of processes suppressing biosynthesis of protein.
The total content of protein in the blood serum and the hemoglobin concentration are increased. At the same time, a decrease in LDH activity in the blood plasma and in the number of lymphocytes was observed (FIG. 5).

[6] = tested on: breast cancer stage IV with lung and bone metastases; test: Patient case: breast cancer stage IV with lung and bone metastases, CA 15-3; format: in vivo, human; settings: for CA 15-3: Femara, Decapeptyl
Excerpt: A patient presented with breast cancer stage IV with lung and bone metastases. They previously underwent a left radical mastectomy for a stage 2 colloidal mucinous adenocarcinoma Hormone receptors and c-erb B were negative. They received adjuvant chemotherapy (FAC) followed by radiotherapy. Later, a sternal bone metastasis appeared and was resected. […] They also developed lung metastases up to 4 cm size. They received chemotherapy with taxotere, navelbine, and pamidronate, followed by tamoxifen. This treatment gave an almost complete response in the lungs. Tamoxifen was replaced by Femara. The patient received radiotherapy on the spine (T4 and T1 2) and Zometa is administered along with Femara. […] Zometa and Femara were continued and Decapeptyl was added to the treatment.

[7] = 5 mg/kg orally daily, course of treatment
[8] = first treated group, M (arithmetic mean of 3 animals)
[9] = first treated group, individual animals
[10] = second treated group, M (arithmetic mean of 3 animals)
[11] = second treated group, individual animals
[12] = third treated group, M (arithmetic mean of 4 animals)
[13] = third treated group, individual animals

CC[C@H](CC[C@@H](C)[C@H]1CC[C@H]2[C@@H]3C[C@H](O)[C@@]4(O)C[C@@H](O)CC[C@]4(C)[C@H]3CC[C@]12C)C(C)C [24-ethyl-cholestane-3β,5α,6α-triol]
neutrophiles/lymphocytes [1]: 0.3024 | PSA ([2]; Day 13, 70 mg/day, Day 0 prior to treatment 1958 (nl < 4)): 1590 | PSA ([2]; Day 15, 70 mg/day): 1142 | PSA ([2]; Day 67, 70 mg/day): 802 | PSA ([2]; Day 110, 70 mg/day): 772 | CA 125 ([3]; After LC (five months), 60 mg/day, Before LC 125): 69 | CA 15-3 ([3]; After LC (five months), 60 mg/day, Before LC 237): 86 | renal failure and anemia ([3]; after treatment, 60 mg/day): improved | spleen metastasis on CT scan ([3]; after treatment, 60 mg/day): regressed | total Body MRI ([3]; after treatment, 60 mg/day): complete liver and spleen response | primitive breast mass on ultrasound ([3]; after treatment, regressed from 5): 3 cm | liver enzymes including LDH ([3]; five months after treatment commenced, 60 mg/day): returned to normal | LDH level ([3]; three days after treatment, 60 mg/day, decrease from 450): 204 | CA 19-9 ([4]; Day 1, 50 mg/day, Day 0 prior to treatment 884 (nl < 37)): 793 | CA 19-9 ([4]; Day 32, 50 mg/day): 675 | CA 19-9 ([4]; Day 59, 50 mg/day (dose then increased to 60 mg/day)): 1127 | CA 19-9 ([4]; Day 128, 60 mg/day): 545 | CT scan of the abdomen, pancreas ([4]; Day 200 of therapy, 3 cm tumor in the head of pancreas before): no masses seen | survival without recurrence (human tumor cell lines; mice that exhibited a complete response): three month survival without recurrence | general condition (human tumor cell lines; most of the treated mice): improvement in the general condition | hematological abnormalities (human tumor cell lines; most of the treated mice): normalization of hematological abnormalities | time to ascitic regression (rapid response to therapy) (human tumor cell lines; most of the treated mice): 1 to 2 days | tumor cells (human tumor cell lines; most of the treated mice, associated with an important tumor lysis): total clearance of tumor cells | hemoglobin concentration [5, 7]: increased | number of lymphocytes [5, 7]: decrease | total content of protein in the blood serum [5, 7]: increased | autopsy: liver, kidney and spleen tissues, treated animals with lymphoma vs healthy mice ([5]; 5 mg/kg orally daily, sixteen days): no differences | LDH [5, 8]: 962.00 U/L | LDH [5, 9]: 1056 U/L and 974 U/L and 856 U/L | LDH [5, 10]: 749.7 U/L | LDH [5, 11]: 698 U/L and 753 U/L and 798 U/L | LDH [5, 12]: 673 U/L | LDH [5, 13]: 759 U/L and 583 U/L and 697 U/L and 653 U/L | Total protein [5, 8]: 53.63 g/L | Total protein [5, 9]: 51.5 g/L and 52.6 g/L and 56.8 g/L | Total protein [5, 10]: 54.73 g/L | Total protein [5, 11]: 52.9 g/L and 54.5 g/L and 56.8 g/L | Total protein [5, 12]: 57.625 g/L | Total protein [5, 13]: 56.5 g/l (2×) and 57.8 g/l and 59.7 g/l | Lymphocytes [5, 8]: 9.15 | Lymphocytes [5, 10]: 7.523 | Lymphocytes [5, 12]: 7.464 | LDH level in some animals ([5]; by the sixteenth day of treatment, some animals): reached the level of healthy animals | Body, weight ([5]; day 16, treated vs untreated diseased mice): tendency to a gain in mass | decrease of LDH activity in blood plasma ([5]; diseased mice, 5 mg/kg orally daily, by the sixteenth day of treatment): 42.3% | Body, weight [5, 8]: 18.04 g | neutrophiles/lymphocytes [5, 8]: 0.28 | Body, weight [5, 9]: 18.27 g and 17.86 g and 18.00 g | Body, weight [5, 10]: 18.2 g | Body, weight [5, 11]: 18.28 g and 18.36 g and 17.97 g | Body, weight [5, 12]: 18.3775 g | neutrophiles/lymphocytes [5, 12]: 0.3255 | Body, weight [5, 13]: 18.53 g and 18.12 g and 18.26 g and 18.60 g | CA 15-3 ([6]; Month 5, 60 mg/day with Zometa, Month 0 prior to treatment 277 (nl < 35)): 156 U | CA 15-3 ([6]; Month 6, 60 mg/day with Zometa): 85 U and 52 U | CA 15-3 ([6]; Month 14, 60 mg/day with Zometa): 24 U | CA 15-3 ([6]; Month 16, 60 mg/day with Zometa): 19.5 U | symptoms ([6]; two weeks after the beginning of LC): totally asymptomatic
